Entries after “also recorded” stand apart in the source; their conditions may differ.
Tests used:
Type in all cases: cell-based
[1] = test system: human lung fibroblasts (HLF); experiment: HLF proliferation by BrdU incorporation (DELFIA), driven by FBS or PDGF; details: for EC50 / Emax: Homo sapiens, Fibroblast, inhibition of BrdU incorporation, NC = not calculated due to incomplete curve; for EC50: mean ± SEM; for inhibition of FBS- and PDGF-driven proliferation (in words): either stimulus
Experimental: Proliferation of HLF was measured by incorporation of bromodeoxyuridine (BrdU). HLF were seeded overnight at 4000 cells/well in 96-well black ViewPlates, before being starved for 24 h in culture medium devoid of FBS. Proliferation was measured after incubation with a range of concentrations of FBS or PDGF, in DMEM supplemented with 0.1% w/v HSA, for 24 h.
For anti-remodelling assays using BrdU incorporation, cells were incubated for 24 h with a range of concentrations of test compounds in the presence of near maximal concentrations of FBS or PDGF in DMEM supplemented with 0.1% w/v HSA. Proliferation was assessed using the DELFIA BrdU incorporation assay kit following manufacturer protocol. Fluorescence was measured using a Packard EnVision plate reader. To account for the inter-assay variation in levels of proliferation in each experiment, data were normalized to the PDGF or FBS response.

[2] = test system: human lung fibroblasts (HLF); experiment: cAMP accumulation in HLF (HitHunter or AlphaScreen); details: for EC50 / Emax: Homo sapiens, Fibroblast; for EC50: read-out: cAMP pEC50 (converted); for Emax: read-out: cAMP Emax (% max); for cAMP response (in words): acute cAMP accumulation
Experimental: HLF were grown to confluency in 96-well white ViewPlates, before incubation with a range of agonist concentrations, or vehicle, for 2 h at room temperature in HBSS with 5 mM HEPES, 0.1% w/v HSA, and 5 μM rolipram. […] Rolipram was excluded when measuring cAMP levels in response to PDE inhibitors. cAMP levels were measured using either HitHunter cAMP assay or AlphaScreen competition assay following manufacturer protocol, and were assessed on either a BMG LABTEK ClarioStar or a Packard EnVision plate reader. cAMP concentrations in each well were determined using a standard curve. To account for the inter-assay variation in levels of cAMP produced in each experiment, data were normalized to the maximal forskolin response.

[3] = test system: human lung fibroblasts (HLF); experiment: Cell viability assay, caspase-3/7 as marker of apoptosis; details: 24 h
Experimental: Cell viability was measured using caspase-3/7 expression as a marker of apoptosis after treatment for 24 h with test compounds. HLF were seeded overnight at 6,000 cells/well in 96-well black ViewPlates, before being starved for 24 hours in culture medium devoid of FBS. Cells were incubated for 24 hours in the presence of test compounds at the top concentrations used in the proliferation assays, or in the presence of 100 nM staurosporine to induce apoptosis.
The presence of the apoptotic marker caspase-3/7 was detected by incubating cells with 8 μM CellEvent™ Caspase-3/7 Red Detection Reagent in dPBS with 5 % FBS, for 30 minutes at 37°C. […] Images were analyzed using a multi wavelength cell scoring algorithm within the MetaXpress 5.3 software, which measures cell number using stained nuclei, and percent of these cells positive for caspase-3/7 from Cy5 readouts. To account for the inter-assay variation in levels of caspase 3/7 detected in each experiment, data were normalized to the staurosporine response.
Statistical significance across treatment groups was determined by using the one-way ANOVA with Dunnett’s multiple-comparison post hoc test.

[4] = test system: human lung fibroblasts (HLF); experiment: Fibroblast to myofibroblast transdifferentiation (FMT), αSMA immunofluorescence, TGFβ-driven; details: 48 h, TGFβ 0.3 ng/mL
Experimental: To assess the differentiation of fibroblasts to the myofibroblast phenotype, immunofluorescence was used to monitor increases in α smooth muscle actin (αSMA). HLF were seeded overnight at 1000 cells/well in 384-well black clear bottom plates, before being starved for 24 h growth medium devoid of FBS.
For anti-remodelling assays using FMT, cells were incubated for 48 h with a range of concentrations of test compounds and incubated for 48 h, at 37°C, 5% CO2 in the presence of a near maximal concentration of TGFβ (0.3 ng/mL), to promote differentiation in DMEM supplemented with 0.1% w/v HSA. Following stimulation, cells were fixed in 4% paraformaldehyde, washed 3× in PBS (with Ca^2+/Mg^2+), and incubated with permeabilising blocking buffer (dPBS (with Ca^2+/Mg^2+), 10% FBS (v/v), 0.1% Triton X-100 (v/v)) for 1 h at 37°C. Wells were then washed 3× in wash buffer (Tris Buffered Saline (TBS), 0.05% (v/v) Tween-20) and incubated with mouse anti-α SMA (1:1000 dilution in permeabilising blocking buffer) for 1 h at room temperature, with gentle shaking. Following 3× wash in wash buffer, wells were incubated with blocking buffer containing Hoechst to stain for nuclear DNA (2 μM), and FITC-conjugated Affini-pure goat […] IgG (1:1000 dilution in blocking buffer) for 30 min at 37°C. Fluorescence was then quantified on a widefield ImageXpress Micro microscope, with a Plan Fluor 20X objective, DAPI filter cube (excitation 400–418 nm, emission 435–470 nm), 50 ms exposure time for nuclei, and FITC filter cube (excitation 467–498 nm, emission 513–556 nm), 200 ms exposure time for αSMA.
To quantify increases in αSMA fluorescence, a standard Multi-Wavelength Cell Scoring algorithm was used in MetaXpress 5.3 software (Molecular Devices, California, USA). To account for the inter-assay variation in levels of αSMA expression produced in each experiment, data were normalized to the response to TGFβ.

[5] = 24 h, EC80 concentration of serum, read-out: Proliferation vs serum pEC50 (converted)
[6] = 24 h, EC80 serum, percentage of maximal proliferation observed with serum, read-out: Proliferation vs serum Emax (% max)
[7] = HLF, 2 h, room temperature, 5 μM rolipram (excluded for PDE inhibitors), mean ± SEM, at least 3 experiments, NC = not calculated due to incomplete curve
[8] = HLF, 2 h, percentage of the maximal forskolin response, mean ± SEM, NC = not calculated due to incomplete curve
[9] = HLF, 1:10 dilution of top conc 10 μM
[10] = HLF, top conc 10 μM, mean ± SEM, n=3
[11] = 24 h, EC80 PDGF, percentage of maximal proliferation observed with PDGF, read-out: Proliferation vs PDGF Emax (% max)
[12] = 24 h, EC80 concentration of PDGF, read-out: Proliferation vs PDGF pEC50 (converted)

Row | Compound | EC50 [1, 5] [nM] | Emax [1, 6] [%] | EC50 [2, 7] [nM] | Emax [2, 8] [%] | Emax [1, 11] [%] | EC50 [1, 12] [nM] | other results
1 | CCCC1([C@H](O)C/C=C/[C@H]2[C@H](O)CC(=O)[C@@H]2CCCCCCC(=O)OC)CCC1 [Butaprost] | 64.6 | 29.1 ± 7.29 | 1550 | 8.76 ± 3.25 | – | – | maximal level of inhibition of serum-driven proliferation ([1]; BrdU, 24 h, near maximal FBS): 29%; % cells positive for caspase-3/7, 1:10 dilution [3, 9]: 0.90 ± 0.39%; % cells positive for caspase-3/7, Top conc [3, 10]: 0.80 ± 0.29%
2 | OCc1cc(C(O)CNCCCCCCOCCCCc2ccccc2)ccc1O (stereo not drawn) [Salmeterol] | 0.263 | 37.7 ± 7.33 | 0.123 | 45.8 ± 3.53 | 89.2 ± 0.27 | 0.0316 | maximal level of inhibition of FMT [4]: 51 % of the TGFβ response; % cells positive for caspase-3/7, 1:10 dilution ([3]; human, 10 nM): 0.66 ± 0.24%; % cells positive for caspase-3/7, Top conc ([3]; human, 100 nM): 0.40 ± 0.12%
3 | CCc1cc2c(cc1CC)CC(NC[C@H](O)c1ccc(O)c3[nH]c(=O)ccc13)C2 [Indacaterol] | 11 | 47.9 ± 1.58 | 2.63 | 83.3 ± 4.47 | 90.3 ± 5.25 | 1.45 | maximal cAMP response ([2]; HLF, % of the forskolin response): 80%; % cells positive for caspase-3/7, 1:10 dilution ([3]; HLF, 1:10 dilution of top conc 1 μM): 0.62 ± 0.15%; % cells positive for caspase-3/7, Top conc ([3]; HLF, top conc 1 μM): 0.62 ± 0.01%
4 | COc1ccc(C2CNC(=O)C2)cc1OC1CCCC1 (stereo not drawn) [Rolipram] | – | – | – | – | – | – | inhibition of FBS- and PDGF-driven proliferation (in words) ([1]; BrdU, 24 h): incapable of inhibiting the proliferation mediated by either stimulus; cAMP response (in words) ([2]; HLF): no detectable cAMP accumulation; inhibition of TGFβ-driven FMT (in words) [4]: full concentration-response curves could not be established
5 | COc1ccc(CC(C)NCC(O)c2ccc(O)c(NC=O)c2)cc1 (stereo not drawn) [Formoterol] | 0.263 | – | – | – | – | 0.832 | EC50 ([2]; 2 h): 0.417 nM; % cells positive for caspase-3/7, 1:10 dilution ([3]; HLF, 1:10 dilution of top conc 100 nM): 0.88 ± 0.48%; % cells positive for caspase-3/7, Top conc ([3]; HLF, top conc 100 nM): 0.67 ± 0.22%
6 | CC(C)Cn1c(=O)n(C)c(=O)c2[nH]cnc21 [IBMX] | – | – | – | – | – | – | inhibition of FBS- and PDGF-driven proliferation (in words) ([1]; BrdU, 24 h): some inhibition of both proliferation and FMT at higher concentrations; cAMP response (in words) ([2]; HLF): no detectable cAMP accumulation; also recorded: did not observe any acute cAMP accumulation; inhibition of TGFβ-driven FMT (in words) [4]: full concentration-response curves could not be established; also recorded: some inhibition of both proliferation and FMT at higher concentrations
7 | Alpha melanocortin stimulating hormone (Ac-SYSMEHFRWGKPV-NH2; ends and bridges not checked; UniProt P01189 138-150, looked up) [α-MSH, MC1, MC3, MC4, MC5 agonist] | – | – | – | – | – | – | inhibition of FBS- and PDGF-driven proliferation (in words) ([1]; BrdU, 24 h): incapable of inhibiting the proliferation mediated by either stimulus; cAMP response (in words) ([2]; HLF): no detectable cAMP response; inhibition of TGFβ-driven FMT (in words) [4]: full concentration-response curves could not be established
8 | CCCCC(C)(O)C/C=C/[C@H]1[C@H](O)CC(=O)[C@@H]1CCCCCCC(=O)OC (mixture of isomers) [Misoprostol] | 182 | 34.7 ± 0.71 | 107 | 52.4 ± 6.23 | 94.1 ± 1.59 | 741 | % cells positive for caspase-3/7, 1:10 dilution ([3]; human, 1 μM): 0.55 ± 0.04%; % cells positive for caspase-3/7, Top conc ([3]; human, 10 μM): 0.54 ± 0.18%
9 | CC(C)(C)NCC(O)c1ccc(O)c(CO)c1 (stereo not drawn) [Salbutamol] | 91.2 | 32.4 ± 5.84 | 43.7 | 68.9 ± 1.4 | 69.2 ± 5.53 | 10.5 | % cells positive for caspase-3/7, 1:10 dilution ([3]; human, 1 μM): 0.53 ± 0.12%; % cells positive for caspase-3/7, Top conc ([3]; human, 10 μM): 0.46 ± 0.09%
10 | CCNC(=O)[C@H]1O[C@@H](n2cnc3c(N)nc(NCCc4ccc(CCC(=O)O)cc4)nc32)[C@H](O)[C@@H]1O [CGS-21680] | – | – | – | – | – | – | cAMP response (in words) ([2]; HLF): no detectable cAMP response
11 | CN[C@@H]1C[C@H]2O[C@@](C)([C@@H]1OC)n1c3ccccc3c3c4c(c5c6ccccc6n2c5c31)C(=O)NC4 [Staurosporine] | – | – | – | – | – | – | % cells positive for caspase-3/7, Top conc ([3]; HLF, top conc 100 nM): 54.8 ± 13.6%; caspase-3/7 expression / apoptosis (in words) ([3]; HLF, one-way ANOVA with Dunnett's test): statistically significant cell apoptosis
12 | CCCCC[C@H](O)/C=C/[C@H]1[C@H](O)CC(=O)[C@@H]1C/C=C\CCCC(=O)O [PGE2, prostaglandin E2] | 91.2 | 43.1 ± 6.14 | 45.7 | 85.5 ± 8.64 | 71 ± 3.86 | 2.51 | % cells positive for caspase-3/7, 1:10 dilution [3, 9]: 0.53 ± 0.04%; % cells positive for caspase-3/7, Top conc [3, 10]: 0.68 ± 0.29%
13 | CC#CCC(C)[C@H](O)/C=C/[C@@H]1[C@H]2c3cccc(CCCC(=O)O)c3O[C@H]2C[C@H]1O (mixture of isomers) [Beraprost] | – | – | 105 | 107 ± 8.99 | – | – | –
14 | O=C(NOC[C@H](O)CO)c1ccc(F)c(F)c1Nc1ccc(I)cc1F [PD0325901] | – | – | – | – | – | – | inhibition of PDGF-mediated proliferation (in words) ([1]; 3 ng/mL PDGF): blocked PDGF-mediated proliferation of HLF
15 | O=C(O)COc1cccc(-c2ocnc2-c2nc(-c3ccccc3)c(-c3ccccc3)o2)c1 [BMY-45778] | – | – | – | – | – | – | cAMP pEC50 [2, 7]: 7.25 ± 0.09; cAMP Emax (% max) [2, 8]: 50.0 ± 4.59 % max
16 | CC#CCC(C)[C@H](O)/C=C/[C@@H]1[C@H]2C/C(=C/CCCC(=O)O)C[C@H]2C[C@H]1O (stereo partly drawn) [Iloprost] | – | – | 77.6 | 99.5 ± 7.22 | – | – | % cells positive for caspase-3/7, 1:10 dilution ([3]; human, 0.3 μM): 1.15 ± 0.29%; % cells positive for caspase-3/7, Top conc ([3]; human, 3 μM): 0.88 ± 0.08%
